Molecular target: C4-reductase from serotype HS:15 (HS:15) (Campylobacter jejuni, UniProt F2X7A6)
Experiment: X-ray crystal structure, […] A
Assay type: binding
Details: co-crystallised with 5 mM NADPH and 5 mM GDP; pH 7.5; active site

Row | Compound | X-ray crystal structure, 1.45 A
1 | Nc1nc2c(ncn2[C@@H]2O[C@H](COP(=O)(O)OP(=O)(O)O)[C@@H](O)[C@H]2O)c(=O)[nH]1 [GDP] | the corresponding electron densities for the GDP and NADPH ligands were unambiguous
2 | NC(=O)C1=CN([C@@H]2O[C@H](COP(=O)(O)OP(=O)(O)OC[C@H]3O[C@@H](n4cnc5c(N)ncnc54)[C@H](OP(=O)(O)O)[C@@H]3O)[C@@H](O)[C@H]2O)C=CC1 [NADPH] | the corresponding electron densities for the GDP and NADPH ligands were unambiguous

— publication PMC9838653 (Biochemistry, 2022)
